Results published in patent US7410971B2, “1,2-di(cyclic)substituted benzene compounds” (Eisai R&D Management Co., Ltd., priority 2003, dated 2008).

Tests used:
DSS-induced colitis = DSS-induced colitis model; assay type: in vivo, Balb/c mice; conditions: 30 mg/kg orally once a day for 5-7 successive days; 1-3% DSS in water for 5-7 days
Source text: Evaluation of Compounds in DSS-Induced Colitis Model
A 1-3% solution of dextran sulfate sodium (hereinafter abbreviated as DSS; ICN) in purified water (Otsuka Pharmaceutical) was fed freely to 6- to 7-week-old male Balb/c mice (Charles River Japan) for 5-7 days to induce colitis. Disease Activity Index (hereinafter abbreviated as DAI) scored based on fecal hardness, blood content in feces and body weight change, the number of neutrophils infiltrating the colon and the length of the colon were used as indexes to evaluate compounds. Each compound was suspended or dissolved in an aqueous solution containing 0.5% methyl cellulose (Wako), and orally administered at 30 mg/kg once a day, for 5-7 successive days.

[1] = test system: colon-infiltrating neutrophils (myeloperoxidase enzyme activity); assay: Oxazolone-induced colon neutrophil infiltration model; assay type: in vivo, Balb/c mice; conditions: Mus musculus, po, 30 mg/kg orally 30 minutes prior to intrarectal oxazolone, colon myeloperoxidase activity 4 hours after, vs oxazolone control group, read-out: Inhibitory rate (%)
Description: Evaluation of Compounds in Oxazolone-Induced Colon Neutrophil Infiltration Model
<Sensitization with Oxazolone>
Five- to six-week-old male Balb/c mice (Charles River Japan) were shaven at the abdomen to an approximately 2 cm square area. A 100% ethanol solution containing 3% 4-ethoxymethylene-2-phenyl-2-oxazolin-5-one (hereinafter referred to as “oxazolone”; Sigma) was applied at 150 μl onto the abdomen of each mouse.
<Preparation of Emulsion Containing Oxazolone>
Distilled water (Otsuka Pharmaceutical) was added in an equivalent volume to 100% peanut oil (Kanto Kagaku) containing 1% oxazolone, and the components were vigorously mixed with a glass syringe (Top Co.), to prepare an emulsion containing 0.5% oxazolone.
<Induction with Oxazolone>
The mice were fasted on the 3rd day after oxazolone sensitization, and were injected with 100 μl of the emulsion containing 0.5% oxazolone prepared in the way described above intrarectally at a site approximately 3 cm from the anus under ether anesthesia on the 4th day.
<Colon-Infiltrating Neutrophil Assay>
Each compound was suspended or dissolved in an aqueous solution containing 0.5% methyl cellulose (Wako), and orally administered at 30 mg/kg 30 minutes prior to the intrarectal injection of oxazolone emulsion. Four hours after the intrarectal injection of oxazolone, mice were sacrificed by cervical dislocation, and colons were extirpated, dissected in the longitudinal direction, washed with physiological saline, and transferred to ice-cooled plastic centrifugation tubes. After adding 1 ml of 50 mM potassium phosphate buffer (hereinafter abbreviated as KPB) (pH 6.0) to the tube, and the tissue were homogenized with PHYSCOTRON (Microtec Nition Co., Ltd.), 2 ml of 50 mM KPB (pH 6.0) was added and the mixture was centrifuged at 3000 rpm, 4° C. for 10 minutes and the supernatant was removed. To the resultant precipitate was added 1 ml of 50 mM KPB (pH 6.0) containing 0.5% hexadecyltrimethyl-ammonium bromide (Sigma), and freeze-thawed 3 to 5 times using liquid nitrogen and hot water, centrifuged at 3000 rpm, 4° C. for 10 minutes to yield a supernatant. The myeloperoxidase enzyme activity in the supernatant was assayed in the following manner. Specifically, to 10 μl of the obtained supernatant was added 200 μl of 50 mM KPB (pH6.0) containing 0.017% o-dianisidine (Sigma) and 0.0005% hydrogen peroxide (Wako), incubated at 37° C., and the change in absorbance at 450 nm was continuously measured for 1 minute using an EL340 Automated Microplate Reader (BIO-TEK) in kinetic mode. The units were the rate of change in absorbance per minute (mO.D./min.). With regard to the effect of each compound, the inhibitory rate (%) with respect to the oxazolone control group, i.e. the oxazolone-injected/compound-free group, was shown in the table 3.

Jurkat cells = assay: Jurkat cell adhesion system (adhesion to immobilized human fibronectin, PMA-stimulated); assay type: cell-based; conditions: concentration inhibiting by 50% the PMA-stimulated increase in number of adhered Jurkat cells on human fibronectin
Description: Evaluation of Compounds in Jurkat Cell Adhesion System
<Immobilization of Human Fibronectin in 96-Well Plate>
Human fibronectin (Becton Dickinson Biosciences) was diluted with phosphate-buffered saline (hereinafter abbreviated as PBS; Sigma) to 0.1-0.01 μg/ml, and the diluted solution was added to a 96-well plate (Becton Dickinson) at 50μ/well, and allowed to stand overnight at 4° C. On the following day, the supernatant was removed from the plate, and then PBS containing 1% bovine serum albumin (hereinafter abbreviated as BSA; Sigma) was added thereto at 100 μl/well and incubation was performed at 37° C. for 2 hours in a CO2 incubator (Hirasawa).
The supernatant was removed from each plate and Jurkat cells suspended in RPMI-1640 (Sigma) containing 1 mg/ml BSA were added at 80 μl/well for 2.5×10^5 cells/well. The compound diluted to different concentrations with RPMI-1640 containing 1 mg/ml BSA was immediately added at 10 μl/well, and then 100 nM phorbol myristate acetate (hereinafter abbreviated as PMA; Sigma) in RPMI-1640 containing 1 mg/ml BSA was added at 10 μl/well and the plate was incubated in a CO2 incubator at 37° C. for 45-60 minutes. The supernatant was removed from the plate and each well was washed several times with 100 μl/well of RPMI-1640, after which 50 mM citrate buffer (pH 5.0) containing 3.75 mM p-nitrophenol-N-acetyl-β-D-glucosaminide (Sigma) and 0.25% Triton X-100 (Sigma) were added at 60 μl/well, and the mixture was placed in a CO2 incubator and incubated at 37° C. for 45 minutes. After incubation, 50 mM glycine buffer (pH 10.4) containing 5 mM EDTA was added at 90 μl/well, and the absorbance at 405 nm was measured with an EL340 Automated Microplate Reader (BIO-TEK) to determine the adhered cell count. The concentration of each compound which inhibited the increase in the number of adhered cells by the PMA-stimulation by 50% was recorded as the IC50 (μM).

SMILES	improvement in comparison with the DSS control group (DAI, number of neutrophils infiltrating the colon, length of the colon) (DSS-induced colitis)	inhibition in vivo at 30 mg/kg [1]	IC50 (Jurkat cells)
COC1CCN(c2ccc(N3CCN(CC4CC4)CC3)c(C3=CCC(C(C)(C)C)CC3)c2)CC1.Cl (racemic) [Example 20, 1-[2-(4-t-Butylcyclohex-1-enyl)-4-(4-methoxypiperidin-1-yl)phenyl]-4-cyclopropylmethylpiperazine hydrochloride]	particularly good improvement	38%	
CC1(C)CC(c2ccccc2N2CCN(CC3CC3)CC2)CC(C)(C)C1.Cl [Example 9, 1-Cyclopropylmethyl-4-[2-(3,3,5,5-tetramethylcyclohexyl)phenyl]piperazine hydrochloride]		35%	
CCNC(=O)CN1CCN(c2ccccc2C2CCC(C(C)(C)C)CC2)CC1.Cl (stereo not drawn) [Example 10, 2-{4-[2-(4-t-Butylcyclohexyl)phenyl]piperazin-1-yl}-N-ethylacetamide hydrochloride]			4.7 µM
CCCCN1CCN(c2ccccc2C2CCC(C(C)(C)C)CC2)CC1.Cl (stereo not drawn) [Example 15, 1-Butyl-4-[2-(4-t-butylcyclohexyl)phenyl]piperazine hydrochloride]	particularly good improvement		2.3 µM
CCCCN1CCN(c2ccc(N3CCC(OC)CC3)cc2C2CC(C)(C)CC(C)(C)C2)CC1.Cl [Example 32, 1-Butyl-4-[4-(4-methoxypiperidin-1-yl)-2-(3,3,5,5-tetramethylcyclohexyl)phenyl]piperazine hydrochloride]	particularly good improvement	51%	
CCCN1CCN(c2ccc(N3CCOCC3)cc2C2=CC(C)(C)CC(C)(C)C2)CC1.Cl [Example 28, 4-[4-(4-Propylpiperazin-1-yl)-3-(3,3,5,5-tetramethylcyclohex-1-enyl)phenyl]morpholine hydrochloride]	particularly good improvement	48%	
CCCCN1CCN(c2ccc(N3CCOCC3)cc2C2=CCC(C(C)(C)C)CC2)CC1.Cl (racemic) [Example 18, 4-[3-(4-t-Butylcyclohex-1-enyl)-4-(4-butylpiperazine-1-yl)phenyl]morpholine hydrochloride]	particularly good improvement	50%	
CC(C)CN1CCN(c2ccccc2C2=CCC3(CC2)CC3)CC1.Cl [Example 34, 1-Isobutyl-4-(2-spiro[2.5]oct-5-en-6-ylphenyl)piperazine hydrochloride]	particularly good improvement		
CCCN1CCN(c2ccccc2C2CC(C)(C)CC(C)(C)C2)CC1.Cl [Example 31, 1-Propyl-4-[2-(3,3,5,5-tetramethylcyclohexyl)phenyl]piperazine hydrochloride]	particularly good improvement	38%	
CCCCCN1CCN(c2cc(OC)ccc2C2CCC(C)(C)CC2)CC1.Cl [Example 1, 1-[2-(4,4-Dimethylcyclohexyl)-5-methoxyphenyl]-4-pentylpiperazine hydrochloride]	particularly good improvement	45%	
CCC(=O)CN1CCN(c2ccc(N3CCOCC3)cc2C2=CCC(CC)(CC)CC2)CC1.Cl [Example 30, 1-{4-[2-(4,4-Diethylcyclohex-1-enyl)-4-morpholin-4-ylphenyl]piperazin-1-yl}butan-2-one hydrochloride]	particularly good improvement	23%	
CCC(=O)CN1CCN(c2ccccc2C2CCC(C)(C)CC2)CC1.Cl [Example 17, 1-{4-[2-(4,4-Dimethylcyclohexyl)phenyl]piperazin-1-yl}butan-2-one hydrochloride]	particularly good improvement	30%	
COCCN1CCN(c2ccccc2C2CCC(C(C)(C)C)CC2)CC1.Cl (stereo not drawn) [Example 19, 1-[2-(4-t-Butylcyclohexyl)phenyl]-4-(2-methoxyethyl)piperazine hydrochloride]	particularly good improvement		
CC1(C)C=C(c2ccccc2N2CCN(CC3CCOCC3)CC2)CC(C)(C)C1.Cl [Example 22, 1-(Tetrahydropyran-4-ylmethyl)-4-[2-(3,3,5,5-tetramethylcyclohex-1-enyl)phenyl]piperazine hydrochloride]	particularly good improvement	28%	
